Experimental data reported in patent publication US9695155B2, “Herbicidal substituted pyrimidinyloxy benzene compounds” (E. I. DU PONT DE NEMOURS AND COMPANY, priority 2013, dated 2017).

Columns and labels:
ragweed = experiment: Test C postemergence; assay type: in vivo, Ambrosia elatior; details: for Plant response rating (0 to 100), Ragweed: 16 g ai/ha, 0 is no effect, 100 is complete control; for Ragweed plant response rating: 31 g ai/ha, 13 to 15 days; for Ragweed plant response rating / Plant response rating, Ragweed: scale 0 to 100 (0 no effect, 100 complete control)
Summary of the method: (§1)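 Visual ratings on a 0–100 scale (100 = complete control) were made versus untreated controls after 13–15 greenhouse days. Chemicals in a surfactant-containing non-phytotoxic solvent were applied either preemergence to seeds in loam–sand soil or postemergence to 1- to 4-leaf plants 2–18 cm tall.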

large (Lg) crabgrass [1] = experiment: Test C postemergence; assay type: in vivo, Digitaria sanguinalis; details: for Plant response rating (0 to 100), Crabgrass, Large: 16 g ai/ha, 0 is no effect, 100 is complete control; for Crabgrass, Large plant response rating: 31 g ai/ha, 13 to 15 days; for Crabgrass, Large plant response rating / Plant response rating, Crabgrass, Large: scale 0 to 100 (0 no effect, 100 complete control)
Summary of the method: as §1

sedge, umbrella = experiment: Test B flooded paddy test; assay type: in vivo, Cyperus difformis; details: Flood, 250 g ai/ha; 0 to 100 scale where 0 is no effect and 100 is complete control
Summary of the method: (§2)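 Compound added straight to paddy water, with pots kept flooded 3 cm above soil, on plants grown to the 2-leaf stage. Visual scoring 0-100 (100 = complete control) against untreated controls after 13 to 15 greenhouse days.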

wheat = experiment: Test A preemergence; assay type: in vivo, Triticum aestivum; details: for Wheat plant response rating (0 to 100 scale): 125 g ai/ha; for Wheat plant response rating: 500 g ai/ha, 0 to 100 scale where 0 is no effect and 100 is complete control
Summary of the method: (§3)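 Visual 0–100 rating (100 = complete control) taken about 10 d post-treatment relative to untreated checks. Preemergence: directed soil spray on sown loam/sand pots. Postemergence: seedlings 2–10 cm, 1–2 leaf. Non-phytotoxic solvent formulation with surfactant.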

rice = experiment: Test B flooded paddy test; assay type: in vivo, Oryza sativa; details: Flood, 250 g ai/ha; 0 to 100 scale where 0 is no effect and 100 is complete control
Summary of the method: as §2

pigweed = experiment: Test A postemergence; assay type: in vivo, Amaranthus retroflexus; details: 0 to 100 scale where 0 is no effect and 100 is complete control; for Pigweed plant response rating: 125 g ai/ha; for Plant response rating, Pigweed: 500 g ai/ha
Summary of the method: as §3

Italian ryegrass = experiment: Test C postemergence; assay type: in vivo, Lolium multiflorum; details: for Plant response rating (0 to 100), Ryegrass, Italian: 16 g ai/ha, 0 is no effect, 100 is complete control; for Ryegrass, Italian plant response rating: 31 g ai/ha, 13 to 15 days; for Ryegrass, Italian plant response rating / Plant response rating, Ryegrass, Italian: scale 0 to 100 (0 no effect, 100 complete control)
Summary of the method: as §1

galium = experiment: Test C postemergence; assay type: in vivo, Galium aparine; details: for Plant response rating (0 to 100), Galium: 16 g ai/ha, 0 is no effect, 100 is complete control; for Galium plant response rating: 31 g ai/ha, 13 to 15 days; for Galium plant response rating / Plant response rating, Galium: scale 0 to 100 (0 no effect, 100 complete control)
Summary of the method: as §1

large (Lg) crabgrass [2] = experiment: Test A postemergence; assay type: in vivo, Digitaria sanguinalis; details: 0 to 100 scale where 0 is no effect and 100 is complete control; for Crabgrass, Large plant response rating: 125 g ai/ha; for Plant response rating, Crabgrass, Large: 500 g ai/ha
Summary of the method: as §3

soybean = experiment: Test C postemergence; assay type: in vivo, Glycine max; details: for Plant response rating (0 to 100), Soybean: 16 g ai/ha, 0 is no effect, 100 is complete control; for Soybean plant response rating: 31 g ai/ha, 13 to 15 days; for Soybean plant response rating / Plant response rating, Soybean: scale 0 to 100 (0 no effect, 100 complete control)
Summary of the method: as §1

blackgrass = experiment: Test C postemergence; assay type: in vivo, Alopecurus myosuroides; details: for Plant response rating (0 to 100), Blackgrass: 16 g ai/ha, 0 is no effect, 100 is complete control; for Blackgrass plant response rating: 31 g ai/ha, 13 to 15 days; for Blackgrass plant response rating / Plant response rating, Blackgrass: scale 0 to 100 (0 no effect, 100 complete control)
Summary of the method: as §1

barnyardgrass [3] = experiment: Test A preemergence; assay type: in vivo, Echinochloa crus-galli; details: for Barnyardgrass plant response rating: 500 g ai/ha
Summary of the method: as §3

lambsquarters = experiment: Test C postemergence; assay type: in vivo, Chenopodium album; details: for Plant response rating (0 to 100), Lambsquarters: 16 g ai/ha, 0 is no effect, 100 is complete control; for Lambsquarters plant response rating: 31 g ai/ha, 13 to 15 days; for Lambsquarters plant response rating / Plant response rating, Lambsquarters: scale 0 to 100 (0 no effect, 100 complete control)
Summary of the method: as §1

yellow nutsedge = experiment: Test C postemergence; assay type: in vivo, Cyperus esculentus; details: for Plant response rating (0 to 100), Nutsedge, Yellow: 16 g ai/ha, 0 is no effect, 100 is complete control; for Nutsedge, Yellow plant response rating: 31 g ai/ha, 13 to 15 days; for Nutsedge, Yellow plant response rating / Plant response rating, Nutsedge, Yellow: scale 0 to 100 (0 no effect, 100 complete control)
Summary of the method: as §1

barnyardgrass [4] = experiment: Test C postemergence; assay type: in vivo, Echinochloa crus-galli; details: for Plant response rating (0 to 100), Barnyardgrass: 16 g ai/ha, 0 is no effect, 100 is complete control; for Barnyardgrass plant response rating: 31 g ai/ha, 13 to 15 days; for Barnyardgrass plant response rating / Plant response rating, Barnyardgrass: scale 0 to 100 (0 no effect, 100 complete control)
Summary of the method: as §1

[5] = 125 g ai/ha, postemergence, visual rating
[6] = 0 to 100 scale where 0 is no effect and 100 is complete control

FC(F)c1cccc(Oc2ncc(Br)cn2)c1-n1cc(C(F)(F)F)cn1 [Compound 163]
Plant response rating (0 to 100), Ragweed (ragweed; postemergence): 10
Ragweed plant response rating (ragweed; postemergence, visual rating): 35
Plant response rating, Ragweed (ragweed; [5]): 60
Plant response rating, Ragweed (ragweed; Postemergence, 62 g ai/ha): 35
Plant response rating (0 to 100), Crabgrass, Large (large (Lg) crabgrass [1]; postemergence): 5
Crabgrass, Large plant response rating (large (Lg) crabgrass [1]; postemergence, visual rating): 5
Plant response rating, Crabgrass, Large (large (Lg) crabgrass [1]; [5]): 10
Plant response rating, Crabgrass, Large (large (Lg) crabgrass [1]; Postemergence, 62 g ai/ha): 10
Plant response rating, Sedge, Umbrella (sedge, umbrella): 90
Wheat plant response rating (0 to 100 scale) (wheat): 0
Wheat plant response rating (wheat): 10
Plant response rating, Rice (rice): 25
Pigweed plant response rating (pigweed): 100
Plant response rating, Pigweed (pigweed): 100
Plant response rating (0 to 100), Ryegrass, Italian (Italian ryegrass; postemergence): 0
Ryegrass, Italian plant response rating (Italian ryegrass; postemergence, visual rating): 0
Plant response rating, Ryegrass, Italian (Italian ryegrass; [5]): 10
Plant response rating, Ryegrass, Italian (Italian ryegrass; Postemergence, 62 g ai/ha): 0
Plant response rating (0 to 100), Galium (galium; postemergence): 70
Galium plant response rating (galium; postemergence, visual rating): 50
Plant response rating, Galium (galium; [5]): 95
Plant response rating, Galium (galium; Postemergence, 62 g ai/ha): 85
Crabgrass, Large plant response rating (large (Lg) crabgrass [2]): 30
Plant response rating, Crabgrass, Large (large (Lg) crabgrass [2]): 90
Plant response rating (0 to 100), Soybean (soybean; postemergence): 35
Soybean plant response rating (soybean; postemergence, visual rating): 50
Plant response rating, Soybean (soybean; [5]): 75
Plant response rating, Soybean (soybean; Postemergence, 62 g ai/ha): 80
Plant response rating (0 to 100), Blackgrass (blackgrass; postemergence): 0
Blackgrass plant response rating (blackgrass; postemergence, visual rating): 5
Plant response rating, Blackgrass (blackgrass; [5]): 15
Plant response rating, Blackgrass (blackgrass; Postemergence, 62 g ai/ha): 5
Plant response rating, Barnyardgrass (barnyardgrass [3]; 125 g ai/ha, 0 to 100 scale where 0 is no effect and 100 is complete control): 50
Barnyardgrass plant response rating (barnyardgrass [3]; [6]): 100
Plant response rating (0 to 100), Lambsquarters (lambsquarters; postemergence): 60
Lambsquarters plant response rating (lambsquarters; postemergence, visual rating): 80
Plant response rating, Lambsquarters (lambsquarters; [5]): 95
Plant response rating, Lambsquarters (lambsquarters; Postemergence, 62 g ai/ha): 85
Plant response rating (0 to 100), Nutsedge, Yellow (yellow nutsedge; postemergence): 5
Nutsedge, Yellow plant response rating (yellow nutsedge; postemergence, visual rating): 5
Plant response rating, Nutsedge, Yellow (yellow nutsedge; [5]): 5
Plant response rating, Nutsedge, Yellow (yellow nutsedge; Postemergence, 62 g ai/ha): 5
Plant response rating (0 to 100), Barnyardgrass (barnyardgrass [4]; postemergence): 5
Barnyardgrass plant response rating (barnyardgrass [4]; postemergence, visual rating): 5
Plant response rating, Barnyardgrass (barnyardgrass [4]; [5]): 5
Plant response rating, Barnyardgrass (barnyardgrass [4]; Postemergence, 62 g ai/ha): 5

FC(F)(F)c1cnn(-c2c(Br)cccc2Oc2ncc(Cl)cn2)c1 [Compound 191]
Plant response rating (0 to 100), Ragweed (ragweed; postemergence): 5
Ragweed plant response rating (ragweed; postemergence, visual rating): 20
Plant response rating, Ragweed (ragweed; [5]): 35
Plant response rating, Ragweed (ragweed; Postemergence, 62 g ai/ha): 30
Plant response rating (0 to 100), Crabgrass, Large (large (Lg) crabgrass [1]; postemergence): 5
Crabgrass, Large plant response rating (large (Lg) crabgrass [1]; postemergence, visual rating): 5
Plant response rating, Crabgrass, Large (large (Lg) crabgrass [1]; [5]): 10
Plant response rating, Crabgrass, Large (large (Lg) crabgrass [1]; Postemergence, 62 g ai/ha): 5
Plant response rating, Sedge, Umbrella (sedge, umbrella): 95
Wheat plant response rating (0 to 100 scale) (wheat): 20
Wheat plant response rating (wheat): 40
Plant response rating, Rice (rice): 0
Pigweed plant response rating (pigweed): 100
Plant response rating, Pigweed (pigweed): 100
Plant response rating (0 to 100), Ryegrass, Italian (Italian ryegrass; postemergence): 0
Ryegrass, Italian plant response rating (Italian ryegrass; postemergence, visual rating): 0
Plant response rating, Ryegrass, Italian (Italian ryegrass; [5]): 5
Plant response rating, Ryegrass, Italian (Italian ryegrass; Postemergence, 62 g ai/ha): 5
Plant response rating (0 to 100), Galium (galium; postemergence): 80
Galium plant response rating (galium; postemergence, visual rating): 80
Plant response rating, Galium (galium; [5]): 98
Plant response rating, Galium (galium; Postemergence, 62 g ai/ha): 98
Crabgrass, Large plant response rating (large (Lg) crabgrass [2]): 50
Plant response rating, Crabgrass, Large (large (Lg) crabgrass [2]): 90
Plant response rating (0 to 100), Soybean (soybean; postemergence): 40
Soybean plant response rating (soybean; postemergence, visual rating): 55
Plant response rating, Soybean (soybean; [5]): 30
Plant response rating, Soybean (soybean; Postemergence, 62 g ai/ha): 60
Plant response rating (0 to 100), Blackgrass (blackgrass; postemergence): 0
Blackgrass plant response rating (blackgrass; postemergence, visual rating): 0
Plant response rating, Blackgrass (blackgrass; [5]): 10
Plant response rating, Blackgrass (blackgrass; Postemergence, 62 g ai/ha): 5
Barnyardgrass plant response rating (0 to 100 scale, 0 is no effect, 100 is complete control) (barnyardgrass [3]; 125 g ai/ha): 70
Barnyardgrass plant response rating (barnyardgrass [3]; [6]): 100
Plant response rating (0 to 100), Lambsquarters (lambsquarters; postemergence): 85
Lambsquarters plant response rating (lambsquarters; postemergence, visual rating): 60
Plant response rating, Lambsquarters (lambsquarters; [5]): 95
Plant response rating, Lambsquarters (lambsquarters; Postemergence, 62 g ai/ha): 75
Plant response rating (0 to 100), Nutsedge, Yellow (yellow nutsedge; postemergence): 0
Nutsedge, Yellow plant response rating (yellow nutsedge; postemergence, visual rating): 0
Plant response rating, Nutsedge, Yellow (yellow nutsedge; [5]): 5
Plant response rating, Nutsedge, Yellow (yellow nutsedge; Postemergence, 62 g ai/ha): 5
Plant response rating (0 to 100), Barnyardgrass (barnyardgrass [4]; postemergence): 10
Barnyardgrass plant response rating (barnyardgrass [4]; postemergence, visual rating): 10
Plant response rating, Barnyardgrass (barnyardgrass [4]; [5]): 15
Plant response rating, Barnyardgrass (barnyardgrass [4]; Postemergence, 62 g ai/ha): 15
